Consider two compounds from paper PMC9501633, “Synthesis, Characterisation and Mechanism of Action of Anticancer 3-Fluoroazetidin-2-ones” (Pharmaceuticals, 2022).

Test [1] deals with Hs578Ts(i)8 cells. Description: AlamarBlue cell viability assay. It is filed as cell-based. How it is done: (§1) The potent 3-fluoro-β-lactam compound 33 synthesised was also evaluated in the triple-negative MDA-MB-231 cell line which lacks expression of the estrogen and progesterone receptors (ER/PR) and the HER2 receptor. […]. Compound 32 was also evaluated in the triple-negative breast cancer cell line Hs578T and its isogenic subclone Hs578T(i)8 (Figure 4C). Hs578Ts(i)8 cells have 2.5-fold more migratory capacity and 3-fold more invasive capacity through the extracellular matrix than the parental cell line (Hs578T) and have 30% more CD44+/CD24-/low cells and in vivo proliferation. […]. The human breast carcinoma cell lines MCF-7 and MDA-MB-231 were purchased from the European Collection of Animal Cell Cultures (ECACC, Salisbury, UK). The SW-480 cells were a kind gift from Dr. Brian Flood, School of Biochemistry and Immunology, Trinity College Dublin. The human breast tumour cell line MCF-7 was cultured in Eagles minimum essential medium with 10% foetal bovine serum, 2 mM L-glutamine and 100 μg/mL penicillin/streptomycin. The medium was supplemented with 1% non-essential amino acids. The human breast tumour cell line MDA-MB-231 cells were maintained in Dulbecco’s modified Eagle’s medium (DMEM) with the addition of penicillin/streptomycin (100 µg/mL), 10% (v/v) foetal bovine serum and 2 mM L-glutamine (complete medium). Breast cancer cell line Hs578T and its isogenic subclone Hs578T(i)8 were a kind gift from Dr. Susan McDonnell, School of Chemical and Bioprocess Engineering, University College Dublin. SW-480 cells, triple-negative breast cancer Hs578T cells and invasive variant Hs578T8i cells were cultured in DMEM with GlutaMAX-I, with the same supplement in the absence of non-essential amino acids. HEK-293T cells (normal epithelial embryonic kidney cells) were cultured in DMEM with GlutaMAX-I in the absence of non-essential amino acids. The SW-480 cells were cultured in DMEM with GlutaMAX-I, with the same supplement in the absence of non-essential amino acids. All media contained 100 U/mL penicillin and 100 μg/mL streptomycin. The cells were seeded into pre-warmed complete medium (10 × 10^4 cells/mL) and maintained at a cell density of 2–19 × 10^5 cells /mL by the addition of fresh media. The cell number was monitored using a haemocytometer. Cells were maintained at 37 °C in 5% CO2 in a humidified incubator. […]
(§2) Figure 4 Antiproliferative activity of 3-fluoro β-lactams on MCF-7, MDA-MB-231, Hs578T and Hs578T isogenic subclone Hs578T(i)8 breast cancer cells and non-tumourigenic HEK-293T cells. […] Cell viability was expressed as a percentage of vehicle control (ethanol 1% (v/v))-treated cells. […] Cell viability was expressed as a percentage of vehicle control (ethanol 1% (v/v))-treated cells and was measured by AlamarBlue assay (average of three independent experiments). […]

The test system of test [2] is Hs578T cells. Description: AlamarBlue cell viability assay. It is filed as cell-based. Particulars: Homo sapiens, Hs-578T. The method, then:
as §1, §2

Test [3] has as its system MCF-7 human breast cancer cells. Description: AlamarBlue cell viability assay. The class given is cell-based. Particulars: Homo sapiens, MCF7, 72 h. How it is done:
The antiproliferative potential of the synthesised 3-fluoro β-lactams 26–35 and 3,3-difluoro β-lactams 36–45 was evaluated in MCF-7 human breast cancer cells using the AlamarBlue assay, with CA-4 as reference compound (Figure 3). […] The results for the preliminary in vitro antiproliferative screen for 3-fluoro β-lactam compounds (26–29), which contain different substituents at the para position in the B ring, are presented in Figure 3A.
Cells were seeded at a density of 5 × 10^3 cells/well (MCF-7 and MDA-MB-231) and 1 × 10^4 cells/well (HEK-293T) in 96-well plates (200 μL per well). After 24 h, cells were then treated with medium alone, with vehicle (1% ethanol (v/v)) or with CA-4 or β-lactam compounds at 1 μM and 10 μM concentrations. […] Cell proliferation for MCF-7 cells was analysed with the AlamarBlue assay (Invitrogen Corp.) as previously described by us. After 72 h, AlamarBlue (10% (v/v)) was added to each well, and plates were incubated for 3–5 h at 37 °C in the dark. Fluorescence results were obtained with a 96-well fluorimeter with excitation at 530 nm and emission at 590 nm with results recorded as percentage viability relative to vehicle control (100%). Dose–response curves were obtained and IC50 values (concentration of drug resulting in 50% reduction in cell survival) were calculated using Prism (GraphPad Software, Inc., La Jolla, CA, USA).
Figure 3 Preliminary cell viability data for 3-fluoro and 3,3-difluoro β-lactam compounds. (A) 3-Fluoro β-lactam compounds containing different para-substituent ring B 26–29; 3-fluoro β-lactam compounds containing different meta-substituent ring B 30, 32–35; (B) 3-difluoro β-lactam compounds containing different para-substituent ring B 36–39; 3-difluoro β-lactam compounds containing different meta-substituent ring B 40, 42–45 in MCF-7 breast cancer cells. Cell proliferation of MCF-7 cells was determined with an AlamarBlue assay (seeding density […] for 96-well plates). Compound concentrations of either 10 μM or 1 μM for 72 h were used to treat the cells with control wells containing vehicle ethanol (1% v/v) and CA-4 (10 μM and 1 μM). The mean value for three experiments is shown with the ± S.E.M. for three independent experiments.

In test [4] the test system is MCF-7 cells. As to the kind of experiment: Immunofluorescence confocal microscopy of the microtubule network. Particulars: MCF-7, 16 h; 33 0.1, 0.5 and 1.0 μM; paclitaxel 1.0 μM; CA-4 0.01 μM. The class given is cell-based, human. How it is done: The tubulin-targeting effect of compound 33 on the microtubule network of MCF-7 cells was further evaluated by immunofluorescence studies to identify the cellular effects that are relevant to its mechanism of action by inhibiting the polymerisation of tubulin. […] Treatment of MCF-7 cells with compound 33 (0.1, 0.5 and 1.0 μM) induced cell rounding and distinct abnormalities of the spindle formation as well as a loss of the structured tubulin that impacts the microtubule network structure in a dose-dependent manner.
Confocal microscopy was used to determine the effects of novel compound 33 and standard drugs on the MCF-7 cytoskeleton according to the protocols we previously described. For the immunofluorescence study, MCF-7 cells were seeded at 1 × 10^5 cells/mL using eight chamber glass slides (BD Biosciences). The cells were treated with vehicle control (1% ethanol (v/v)), CA-4 (0.01 μM), paclitaxel (1 µM) and 33 (0.1 µM, 0.5 µM and 1 µM) for 16 h. The cells were gently washed in PBS, fixed with 4% paraformaldehyde in PBS (20 min) and permeabilised in 0.5% Triton X-100. After further washes in PBS (containing 0.1% Tween (PBST)), cells were blocked with 5% bovine serum albumin which was diluted with PBST. Cells were incubated with mouse monoclonal anti-α-tubulin–FITC antibody (clone DM1A) (Sigma) (1:100) at 20 °C for 2 h and then washed in PBST and incubated with Alexa Fluor 488 dye (1:500) for 1 h at 20 °C. Cells were washed in PBST and mounted in Ultra Cruz Mounting Media (Santa Cruz Biotechnology, Santa Cruz, CA, USA) containing 4,6-diamino-2-phenolindol dihydrochloride (DAPI). The images were captured by Leica SP8 confocal microscopy with Leica Application Suite X software. Experiments were performed on three independent occasions and images were collected on the same day using identical parameters.
Figure 8 Compound 33 acts as depolymeriser of the microtubule network of MCF-7 breast cancer cells. Cells were treated with vehicle control ([…]), CA-4 (0.01 μM), paclitaxel (1 μM) or compound 33 (0.1, 0.5 and 1 μM) for 16 h. […]

Test [5] deals with purified bovine brain tubulin. As to the kind of experiment: Tubulin polymerisation assay (turbidimetric, 340 nm). The class given is biochemical. As to conditions: paclitaxel 10 µM; 33 10 and 30 µM. The method, then:
Tubulin polymerisation was investigated using a turbidimetric assay which determines the light scattering by microtubules (absorbance at 340 nm) that is proportional to the microtubule polymer concentration.
Tubulin polymerisation was monitored with purified bovine tubulin using the BK006 kit supplied by Cytoskeleton Inc. (Denver, CO, USA), carried out following the manufacturer’s instructions with the standard assay conditions. Purified (>99%) bovine brain tubulin (3 mg/mL) in a buffer containing PIPES (80 mM, pH 6.9), EGTA (0.5 mM), MgCl2 (2 mM), GTP (1 mM) and glycerol (10%) was incubated at 37 °C in the presence of either vehicle (2% (v/v) ddH2O) or paclitaxel (10 µM), CA-4 (10 μM) or 33 (10 and 30 µM). The effect on tubulin assembly was monitored turbidimetrically at 340 nm in a Spectramax 340 PC spectrophotometer (Molecular Devices, Sunnyvale, CA, USA), with the light scattered depending on the concentration of polymerised microtubules formed. The absorbance was measured at 30 s intervals for 60 min.
Figure 7 Effect of β-lactam compound 33 (10 and 30 µM) and paclitaxel (10 µM) on in vitro tubulin polymerisation. Purified bovine tubulin and GTP were mixed in a 96-well plate. Compounds were added and the reaction was started by warming the solution from 4 to 37 °C. Ethanol (1% v/v) was used as a vehicle control. The effect on tubulin assembly was monitored in a Spectramax 340PC spectrophotometer at 340 nm at 30 s intervals for 30 min at 37 °C. […] Each experiment was performed in duplicate.

Turning to `COc1ccc(C2C(F)C(=O)N2c2cc(OC)c(OC)c(OC)c2)cc1O` (stereo not drawn) [Compound 32, 3-Fluoro-4-(3-hydroxy-4-methoxyphenyl)-1-(3,4,5-trimethoxyphenyl)azetidin-2-one], the IC50 was 65 nM in test [1]; 33 nM in test [2]; 75 nM in test [3] (MCF-7, 72 h). For the same compound, in test [3] (MCF-7, 1 μM, 72 h, read-out: viable cells remaining), the viability at 1 µM came to 30%.

Turning to `CC(=O)O[C@H]1C(=O)[C@@]2(C)[C@H]([C@H](OC(=O)c3ccccc3)[C@]3(O)C[C@H](OC(=O)[C@H](O)[C@@H](NC(=O)c4ccccc4)c4ccccc4)C(C)=C1C3(C)C)[C@]1(OC(C)=O)CO[C@@H]1C[C@@H]2O` [Paclitaxel, reference compound], the “effect on the microtubule network” value in test [4] is given as “significant stabilisation of microtubules”. In addition, in test [5], the “effect on tubulin polymerisation” value is “stabilises the tubulin”.
